# Target: human μ opiate receptor (Homo sapiens, UniProt P35372)
# Assay: μ binding, displacement of [3H]-naloxone
# Conditions: CHO-K1 membranes expressing human μ opiate receptor; Cheng-Prusoff
# Sequence of human μ opiate receptor (P35372 whole entry): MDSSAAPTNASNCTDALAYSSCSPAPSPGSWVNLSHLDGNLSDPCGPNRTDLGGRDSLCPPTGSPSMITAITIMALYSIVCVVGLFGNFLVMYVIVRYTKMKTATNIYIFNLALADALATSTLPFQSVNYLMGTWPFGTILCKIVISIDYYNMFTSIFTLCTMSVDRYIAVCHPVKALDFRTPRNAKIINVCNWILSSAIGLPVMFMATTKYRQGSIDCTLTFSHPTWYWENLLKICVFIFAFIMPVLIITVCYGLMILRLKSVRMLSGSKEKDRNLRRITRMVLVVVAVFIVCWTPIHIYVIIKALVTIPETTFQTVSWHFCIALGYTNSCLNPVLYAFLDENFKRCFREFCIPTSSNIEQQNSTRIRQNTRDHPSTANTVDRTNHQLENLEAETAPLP
compound,measurement,value
"CN(C)C1(Cc2ccccc2)CC=C(c2cc3ccccc3n2C)CC1 (stereo not shown) [Example 302, [1-Benzyl-4-(1-methyl-1H-indol-2-yl)cyclohex-3-enyl]dimethylamine]",Ki,0.103 µM

# — US8138187B2, “Substituted heteroaryl derivatives” (Gruenenthal GmbH, priority 2006, dated 2012)
